Laboratory results published in ChEMBL document CHEMBL4184097, “Design, synthesis, and evaluation of novel inhibitors for wild-type human serine racemase” (Bioorg Med Chem Lett, 2018).

The molecules below were run against T1, Serine racemase (Homo sapiens) (UniProt Q9GZT4) (assay: Inhibition of wild-type serine racemase (unknown origin) assessed as residual activity by measuring D-serine level at 1 mM using […] as substrate and PLP as co-factor pretreated for 30 mins followed by substrate and co-factor addition measured after 30 mins relative to control).
T1 sequence (whole entry): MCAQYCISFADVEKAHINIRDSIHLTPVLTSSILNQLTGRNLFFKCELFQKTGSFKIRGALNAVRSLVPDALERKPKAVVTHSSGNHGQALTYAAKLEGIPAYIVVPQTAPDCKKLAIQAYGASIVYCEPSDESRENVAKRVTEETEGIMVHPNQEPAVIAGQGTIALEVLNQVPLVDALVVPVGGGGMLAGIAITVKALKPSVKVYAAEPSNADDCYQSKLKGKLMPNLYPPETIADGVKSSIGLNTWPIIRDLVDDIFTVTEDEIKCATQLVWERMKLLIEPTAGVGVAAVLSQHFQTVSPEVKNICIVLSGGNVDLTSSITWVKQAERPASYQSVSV

First: COc1ccc(SCCC(=O)OCC(=O)Nc2ccc(NC(C)=O)cc2)cc1
Second: COc1cccc(SCCC(=O)OCC(=O)Nc2ccc(NC(C)=O)cc2)c1
The Activity of the first is higher: 65% for the first, 61% for the second.

Compared with CC(=O)c1ccc(NC(=O)NNC(=O)Cc2ccc(Cl)c(Cl)c2)cc1, CC(=O)Nc1ccc(NC(=O)CNC(=O)CCSc2ccccc2Cl)cc1 is higher in Activity: 56% for the first, 100% for the second.

Compared with COc1ccccc1SCCC(=O)NCC(=O)Nc1ccc(NC(C)=O)cc1, COc1ccccc1SCCC(=O)OCC(=O)Nc1ccc(NC(C)=O)cc1 is lower in Activity: 100% for the first, 36% for the second.

First: CC(=O)Nc1ccc(NC(=O)COC(=O)CCSc2ccccc2F)cc1
Second: CC(=O)Nc1ccc(NC(=O)COC(=O)CCSc2ccccc2Cl)cc1
The Activity of the first is lower: 55% for the first, 84% for the second.

Compared with COc1ccccc1CCCC(=O)OCC(=O)Nc1ccc(NC(C)=O)cc1, COc1ccccc1CCCC(=O)CCC(=O)Nc1ccc(NC(C)=O)cc1 is higher in Activity: 76% for the first, 100% for the second.

First: CC(=O)Nc1ccc(NC(=O)C(C)NC(=O)CCSc2ccccc2Cl)cc1 (centres undefined)
Second: COc1ccccc1SCCC(=O)NC(C)C(=O)Nc1ccc(NC(C)=O)cc1 (centres undefined)
The Activity of the first is lower: 52% for the first, 92% for the second.

Compared with CC(=O)Nc1ccc(NC(=O)COC(=O)CCOc2ccccc2F)cc1, CC(=O)Nc1ccc(NC(=O)COC(=O)CCSc2ccccc2)cc1 is lower in Activity: 88% for the first, 72% for the second.

Compared with CC(=O)Nc1ccc(NC(=O)COC(=O)CCSc2cccc(Cl)c2)cc1, CC(=O)Nc1ccc(NC(=O)C(C)OC(=O)CCSc2ccccc2Cl)cc1 (centres undefined) is lower in Activity: 100% for the first, 49% for the second.

CC(OC(=O)CCSc1ccccc1Cl)C(=O)Nc1ccccc1 (centres undefined) and CCc1ccccc1NC(=O)C(C)OC(=O)CCSc1ccccc1Cl (centres undefined) are the same in Activity: 91% for the first, 91% for the second.

What follows are molecules tested against T2, Serine racemase (Homo sapiens, UniProt Q9GZT4) (assay: Inhibition of wild-type serine racemase (unknown origin) assessed as residual activity by measuring D-serine level using […] as substrate and PLP as co-factor pretreated for 30 mins followed by substrate and co-factor addition measured after 30 mins).
T2 sequence (Q9GZT4 whole entry): T1 sequence (whole entry)

In the case of COc1ccccc1SCCC(=O)OCC(=O)Nc1ccc(NC(C)=O)cc1, the IC50 is reported as 836 µM.
